Test results: PubChem BioAssay AID179 (DTP/NCI, 2004)
Several values for one entry are separate records, joined by “and”; a condition that tells them apart may be missing. Equal entries are not always repeated. Activity calls are given as the source filed them.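 How the source made its calls: active means compounds giving half or more protection of infected cells from virus-caused growth loss, again on retest; inactive means the rest.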

Test system: CEM cells HIV-1 protection, formazan growth assay
Experiment: NCI AIDS Antiviral Assay
Conditions: for IC50: measured here: growth of uninfected CEM cells
Procedure: The ability of compounds to protect human CEM cells from HIV-1 infection is measured as a screen for new compounds capable of inhibiting the HIV virus. Five concentrations of drug were tested on uninfected and infected cells and cell growth was measured using a soluble formazan assay. […] Compounds that provided at least 50% protection were retested. Compounds that provided at least 50% protection on retest were listed as moderately active. Compounds that reproducibly provided 100% protection were listed as confirmed active. […] Note that the inability to provide protection could be due to toxicity.

Compound | EC50 | IC50 | outcome
CCN(CC)CCOc1cccc(/C=C(\C#N)c2ccccc2)c1 | > 100 µM | 7.76 µM | 
O=c1cnn(C2OC(C(O)CO)C(O)C2O)c(=O)[nH]1 (stereo not drawn) |  |  | inactive
COc1ccc2cc(C(=O)NCCCNC(=O)c3ccc4c(OC)c(OC)ccc4c3)ccc2c1OC | > 200 µM | > 200 µM | 
CN(C)CC1CCC(CN(C)C)C1=NO (stereo not drawn) |  |  | inactive
Cc1nc(-c2nc(C)c(C(=O)/C=C/c3ccc(N(C)C)cc3)s2)sc1C(=O)/C=C/c1ccc(N(C)C)cc1 | > 34.7 µM | > 34.7 µM | 
CCCCCCCCCCCCCCCC=C(c1cc(Cl)c(OC)c(C(=O)O)c1)c1cc(Cl)c(OC)c(C(=O)O)c1 | > 1200 µM | 26.3 µM and 52.5 µM | 
COC1(OC)N=C(N)C2(C#N)C3(C(=O)N(C(C)C)N=C3C)C12C#N (stereo not drawn) | > 200 µM | > 200 µM | 
CC(=Nc1ccc(Cl)cc1)c1ccncc1 |  |  | inactive
O=S(O)CCCCCSSc1ccc(Cl)cc1 |  |  | inactive
N#C/C(C(=O)Nc1ccc(Cl)cc1)=C(/N)N1CCCCC1 | > 200 µM | > 200 µM | 
O=C(c1ccccc1)c1cccc(C(=O)c2ccccc2)c1 | > 25.1 µM | > 25.1 µM | 
Nc1nc(OCc2ccccc2)c2[nH]cnc2n1 | > 200 µM | 32.4 µM | 
O=C1NCCCNCCCNCCCNC(=O)c2cccc1n2 | > 200 µM | 186 µM | 
Cc1cc2c(c(=O)o1)C1=S(SC(c3ccccc3)=C1)S2 (stereo not drawn) | 75.9 µM | > 200 µM | 
CCOC(=O)C(=CNc1ccc(F)c(F)c1)C(=O)OCC | > 200 µM | 79.4 µM | 
N#Cc1nc(-c2cccnc2)oc1N | > 200 µM | > 200 µM | 
[O-]c1on[n+](-c2ccccc2)c1-c1ccccc1 | > 151 µM | 74.1 µM | 

Compound | EC50 | IC50 | outcome
COc1cc(C)c2c(c1)C=C1C(=O)C(=O)C(C(C)C)=C(O)C1=CC2 |  |  | inactive
CN(C)c1n2c3ccc([N+](=O)[O-])cc3n3c(N(C)C)[n+]4ccccc4c3c2c2cccc[n+]12 | > 200 µM | 89.1 µM | 
N#Cc1nc(-c2ccccc2C(=O)O)oc1N |  |  | inactive
C=C1C2CCC3(C4C[C@H]5C6(CCC[C@@]5(C)[C@H]5OCCN5[C@H]6O4)[C@@H]3C2)C1OC(C)=O (stereo partly drawn) | > 12.9 µM | > 12.9 µM | 
Cc1nonc1NC(=O)OCc1ccccc1 | > 112 µM | > 112 µM | 
CC1(C)[C@@H]2C[C@H]1C(Cc1ccc(C[C@H]3c4cc(-c5ccccn5)ncc4[C@H]4C[C@@H]3C4(C)C)cc1)c1cc(-c3ccccn3)ncc12 (stereo partly drawn) | > 20 µM | 0.813 µM | 
O=C1C(CN2CCCCC2)CCCC1CN1CCCCC1 (stereo not drawn) | > 550 µM | 6.17 µM | inactive
c1ccc2c(c1)[nH]c1c2c(N2CCOCC2)nn2cnnc12 | > 200 µM | > 200 µM | 
CCOC(=O)/C(=C/c1ccccc1)C(=O)c1ccccc1 | > 25.7 µM | 20 µM | 
CCOC(=O)CCc1c(C)c2ccc(O)cc2oc1=O | > 200 µM | > 200 µM | 
O=C(c1ccc([N+](=O)[O-])cc1[N+](=O)[O-])N(/N=C/C=C/c1ccccc1)c1nnc(-c2ccccc2)c(-c2ccccc2)n1 | > 9.12 µM | > 9.12 µM | 
C/C=C(\C)C(=O)O[C@@H]1CC(C)(C)CC2C3=CCC4[C@]56CC[C@](O)(OC5)C(C)(C)C6CC[C@@]4(C)C3(C)CC[C@]21C(=O)O (stereo partly drawn) | > 200 µM | 18.2 µM | 
Nc1ccc2c(c1)C(N)c1ccccc1-2 (stereo not drawn) | > 200 µM | 55 µM | 
COc1ccc(/C=C2\SC(=S)N(/C=C(/C#N)C(=O)c3ccc4ccccc4c3)C2=O)cc1OC | > 200 µM | 11.7 µM | 
COc1cc(C2SC(N)=Nc3c2c(C)nn3C(=O)c2ccc(Cl)cc2)cc(OC)c1OC (stereo not drawn) | > 200 µM | > 200 µM | 
CCCCCn1c(=O)c2c(=O)[nH][nH]c2c2ccccc21 | > 200 µM | > 200 µM | 
C[C@H](CCC(=O)O)[C@H]1CC[C@H]2[C@@H]3[C@H](O)C[C@@H]4C[C@H](O)CC[C@]4(C)[C@H]3CC[C@]12C | > 200 µM | 39.8 µM | 
